Laboratory results as given in the supplement of paper PMC11451515.

How the values were obtained:
Details in all cases: 48 h
SEM cells = assay: cell viability relative to DMSO control; higher = less cytotoxic
Outline: (§1)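 Leukemia cells (NOMO1 or SEM, 500 cells/well; P12-Ichikawa, 1000 cells/well) were seeded in 5 μl in 1536-well plates after at least four passages of adaptation to each medium. They received library compounds in DMSO by pin dosing, 11 threefold points from 47 μM to 0.79 nM. Luminescence with CellTiter-Glo One was read after 48 h at 37°C. Viability is stated per plate relative to DMSO wells, with cell-free wells as background.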

NOMO1 [1] = assay: as above
Outline: as §1

P12-Ichikawa [2] = assay: as above
Outline: as §1

NOMO1 [3] = assay: AUC of viability dose-response curve (% viability x log10 dose units); higher = less sensitive
Outline: (§2)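 Leukemia cells adapted to each medium were seeded in 1536-well plates (500 or 1000 cells/well) and given library compounds in DMSO for 48 h at 37°C. The 11 threefold doses spanned 47 μM to 0.79 nM, and CellTiter-Glo One luminescence was normalised per plate to DMSO and cell-free wells before four-parameter log-logistic fitting on log10 dose. Area under the curve was integrated with the trapezoidal rule, scaling curves above full viability and removing curves that failed quality control.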

P12-Ichikawa [4] = assay: as above
Outline: as §2

[5] = HPLM + 10% dialyzed FBS, 0.000781 µM
[6] = HPLM + 10% dialyzed FBS, 0.00234 µM
[7] = HPLM + 10% dialyzed FBS, 0.00702 µM
[8] = HPLM + 10% dialyzed FBS, 0.0211 µM
[9] = HPLM + 10% dialyzed FBS, 0.0632 µM
[10] = HPLM + 10% dialyzed FBS, 0.19 µM
[11] = HPLM + 10% dialyzed FBS, 0.569 µM
[12] = HPLM + 10% dialyzed FBS, 1.71 µM
[13] = HPLM + 10% dialyzed FBS, 5.12 µM
[14] = HPLM + 10% dialyzed FBS, 15.4 µM
[15] = HPLM + 10% dialyzed FBS, 46.1 µM
[16] = RPMI 5 mM glucose + 10% FBS, 0.000781 µM
[17] = RPMI 5 mM glucose + 10% FBS, 0.00234 µM
[18] = RPMI 5 mM glucose + 10% FBS, 0.00702 µM
[19] = RPMI 5 mM glucose + 10% FBS, 0.0211 µM
[20] = RPMI 5 mM glucose + 10% FBS, 0.0632 µM
[21] = RPMI 5 mM glucose + 10% FBS, 0.19 µM
[22] = RPMI 5 mM glucose + 10% FBS, 0.569 µM
[23] = RPMI 5 mM glucose + 10% FBS, 1.71 µM
[24] = RPMI 5 mM glucose + 10% FBS, 5.12 µM
[25] = RPMI 5 mM glucose + 10% FBS, 15.4 µM
[26] = RPMI 5 mM glucose + 10% FBS, 46.1 µM
[27] = RPMI 5 mM glucose + 10% dialyzed FBS, 0.000781 µM
[28] = RPMI 5 mM glucose + 10% dialyzed FBS, 0.00234 µM
[29] = RPMI 5 mM glucose + 10% dialyzed FBS, 0.00702 µM
[30] = RPMI 5 mM glucose + 10% dialyzed FBS, 0.0211 µM
[31] = RPMI 5 mM glucose + 10% dialyzed FBS, 0.0632 µM
[32] = RPMI 5 mM glucose + 10% dialyzed FBS, 0.19 µM
[33] = RPMI 5 mM glucose + 10% dialyzed FBS, 0.569 µM
[34] = RPMI 5 mM glucose + 10% dialyzed FBS, 1.71 µM
[35] = RPMI 5 mM glucose + 10% dialyzed FBS, 5.12 µM
[36] = RPMI 5 mM glucose + 10% dialyzed FBS, 15.4 µM
[37] = RPMI 5 mM glucose + 10% dialyzed FBS, 46.1 µM
[38] = RPMI 5 mM glucose + 10% dialyzed FBS

## O=C(NCCCNc1nc(Nc2cccc(NC(=O)N3CCCC3)c2)ncc1I)c1cccs1
SEM cells; [5]
  cell viability: 55.6%
SEM cells; [6]
  cell viability: 91.1%
SEM cells; [7]
  cell viability: 102%
SEM cells; [8]
  cell viability: 75.8%
SEM cells; [9]
  cell viability: 46.5%
SEM cells; [10]
  cell viability: 60.8%
SEM cells; [11]
  cell viability: 50.4%
SEM cells; [12]
  cell viability: 27.2%
SEM cells; [13]
  cell viability: 32.9%
SEM cells; [14]
  cell viability: 76.7%
SEM cells; [15]
  cell viability: 70.6%
SEM cells; [16]
  cell viability: 74%
SEM cells; [17]
  cell viability: 124%
SEM cells; [18]
  cell viability: 124%
SEM cells; [19]
  cell viability: 111%
SEM cells; [20]
  cell viability: 68.7%
SEM cells; [21]
  cell viability: 85.1%
SEM cells; [22]
  cell viability: 33.1%
SEM cells; [23]
  cell viability: 13.4%
SEM cells; [24]
  cell viability: 37.5%
SEM cells; [25]
  cell viability: 77.7%
SEM cells; [26]
  cell viability: 68.9%
SEM cells; [27]
  cell viability: 46.5%
SEM cells; [28]
  cell viability: 96.9%
SEM cells; [29]
  cell viability: 87.4%
SEM cells; [30]
  cell viability: 78.9%
SEM cells; [31]
  cell viability: 36.8%
SEM cells; [32]
  cell viability: 64.9%
SEM cells; [33]
  cell viability: 42.6%
SEM cells; [34]
  cell viability: 23.9%
SEM cells; [35]
  cell viability: 28.4%
SEM cells; [36]
  cell viability: 79.6%
SEM cells; [37]
  cell viability: 62.6%
NOMO1 [1]; [5]
  cell viability: 81.8%
NOMO1 [1]; [6]
  cell viability: 91%
NOMO1 [1]; [7]
  cell viability: 88.4%
NOMO1 [1]; [8]
  cell viability: 79.3%
NOMO1 [1]; [9]
  cell viability: 80.9%
NOMO1 [1]; [10]
  cell viability: 72%
NOMO1 [1]; [11]
  cell viability: 91.5%
NOMO1 [1]; [12]
  cell viability: 51.5%
NOMO1 [1]; [13]
  cell viability: 67.9%
NOMO1 [1]; [14]
  cell viability: 84.3%
NOMO1 [1]; [15]
  cell viability: 78.7%
NOMO1 [1]; [16]
  cell viability: 80.4%
NOMO1 [1]; [17]
  cell viability: 89.7%
NOMO1 [1]; [18]
  cell viability: 78%
NOMO1 [1]; [19]
  cell viability: 81.5%
NOMO1 [1]; [20]
  cell viability: 76.1%
NOMO1 [1]; [21]
  cell viability: 76.9%
NOMO1 [1]; [22]
  cell viability: 80%
NOMO1 [1]; [23]
  cell viability: 65.9%
NOMO1 [1]; [24]
  cell viability: 77%
NOMO1 [1]; [25]
  cell viability: 83.1%
NOMO1 [1]; [26]
  cell viability: 89.9%
NOMO1 [1]; [27]
  cell viability: 89.1%
NOMO1 [1]; [28]
  cell viability: 89.2%
NOMO1 [1]; [29]
  cell viability: 89.3%
NOMO1 [1]; [30]
  cell viability: 75%
NOMO1 [1]; [31]
  cell viability: 84.6%
NOMO1 [1]; [32]
  cell viability: 84.4%
NOMO1 [1]; [33]
  cell viability: 80%
NOMO1 [1]; [34]
  cell viability: 59.1%
NOMO1 [1]; [35]
  cell viability: 83.1%
NOMO1 [1]; [36]
  cell viability: 75.7%
NOMO1 [1]; [37]
  cell viability: 76.9%
P12-Ichikawa [2]; [5]
  cell viability: 91.6%
P12-Ichikawa [2]; [6]
  cell viability: 91.9%
P12-Ichikawa [2]; [7]
  cell viability: 93%
P12-Ichikawa [2]; [8]
  cell viability: 90.9%
P12-Ichikawa [2]; [9]
  cell viability: 87.3%
P12-Ichikawa [2]; [10]
  cell viability: 84%
P12-Ichikawa [2]; [11]
  cell viability: 81.3%
P12-Ichikawa [2]; [12]
  cell viability: 72.5%
P12-Ichikawa [2]; [13]
  cell viability: 84.9%
P12-Ichikawa [2]; [14]
  cell viability: 76.1%
P12-Ichikawa [2]; [15]
  cell viability: 85.1%
P12-Ichikawa [2]; [16]
  cell viability: 83.2%
P12-Ichikawa [2]; [17]
  cell viability: 91%
P12-Ichikawa [2]; [18]
  cell viability: 87.6%
P12-Ichikawa [2]; [19]
  cell viability: 90%
P12-Ichikawa [2]; [20]
  cell viability: 85.9%
P12-Ichikawa [2]; [21]
  cell viability: 90.4%
P12-Ichikawa [2]; [22]
  cell viability: 94.2%
P12-Ichikawa [2]; [23]
  cell viability: 50%
P12-Ichikawa [2]; [24]
  cell viability: 84.5%
P12-Ichikawa [2]; [25]
  cell viability: 83.7%
P12-Ichikawa [2]; [26]
  cell viability: 79.9%
P12-Ichikawa [2]; [27]
  cell viability: 88.1%
P12-Ichikawa [2]; [28]
  cell viability: 84.6%
P12-Ichikawa [2]; [29]
  cell viability: 79.8%
P12-Ichikawa [2]; [30]
  cell viability: 82.6%
P12-Ichikawa [2]; [31]
  cell viability: 91.7%
P12-Ichikawa [2]; [32]
  cell viability: 88.1%
P12-Ichikawa [2]; [33]
  cell viability: 84.9%
P12-Ichikawa [2]; [34]
  cell viability: 81.4%
P12-Ichikawa [2]; [35]
  cell viability: 80.2%
P12-Ichikawa [2]; [36]
  cell viability: 85.6%
P12-Ichikawa [2]; [37]
  cell viability: 72.4%
NOMO1 [3]; HPLM + 10% dialyzed FBS
  AUC of viability dose-response curve: 375
NOMO1 [3]; RPMI 5 mM glucose + 10% FBS
  AUC of viability dose-response curve: 381
NOMO1 [3]; [38]
  AUC of viability dose-response curve: 384
P12-Ichikawa [4]; HPLM + 10% dialyzed FBS
  AUC of viability dose-response curve: 407
P12-Ichikawa [4]; RPMI 5 mM glucose + 10% FBS
  AUC of viability dose-response curve: 400
P12-Ichikawa [4]; [38]
  AUC of viability dose-response curve: 401
